Experimental data as given in ChEMBL document CHEMBL3526052 (Drug Metab Dispos, 2013).

Tests used:
[1] = target: T1, Equilibrative nucleoside transporter 2 (Homo sapiens, UniProt Q14542); assay: Binding affinity to recombinant human ENT2 expressed in Saccharomyces cerevisiae assessed as inhibition of [3H]-uridine transport after 15 mins by scintillation counting analysis; assay type: ADME; conditions: for Ki: read-out: Ki(app)
T1 sequence (Q14542 whole entry): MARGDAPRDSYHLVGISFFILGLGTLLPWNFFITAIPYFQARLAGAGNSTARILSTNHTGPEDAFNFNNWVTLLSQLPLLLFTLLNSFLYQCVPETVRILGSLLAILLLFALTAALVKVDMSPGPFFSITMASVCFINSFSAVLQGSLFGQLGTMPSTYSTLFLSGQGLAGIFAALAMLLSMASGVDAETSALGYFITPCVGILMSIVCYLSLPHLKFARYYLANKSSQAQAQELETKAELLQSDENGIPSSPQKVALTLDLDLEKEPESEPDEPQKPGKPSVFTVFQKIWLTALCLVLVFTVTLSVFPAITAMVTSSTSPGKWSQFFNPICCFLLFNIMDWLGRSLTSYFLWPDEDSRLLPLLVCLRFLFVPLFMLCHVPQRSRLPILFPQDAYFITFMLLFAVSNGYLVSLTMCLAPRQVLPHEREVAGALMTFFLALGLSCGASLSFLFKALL

[2] = target: T2, Sodium/nucleoside cotransporter 1 (Homo sapiens, UniProt O00337); assay: Binding affinity to recombinant human CNT1 expressed in Saccharomyces cerevisiae assessed as inhibition of [3H]-uridine transport after 15 mins by scintillation counting analysis; assay type: ADME; conditions: for Ki: read-out: Ki(app)
T2 sequence (O00337 whole entry): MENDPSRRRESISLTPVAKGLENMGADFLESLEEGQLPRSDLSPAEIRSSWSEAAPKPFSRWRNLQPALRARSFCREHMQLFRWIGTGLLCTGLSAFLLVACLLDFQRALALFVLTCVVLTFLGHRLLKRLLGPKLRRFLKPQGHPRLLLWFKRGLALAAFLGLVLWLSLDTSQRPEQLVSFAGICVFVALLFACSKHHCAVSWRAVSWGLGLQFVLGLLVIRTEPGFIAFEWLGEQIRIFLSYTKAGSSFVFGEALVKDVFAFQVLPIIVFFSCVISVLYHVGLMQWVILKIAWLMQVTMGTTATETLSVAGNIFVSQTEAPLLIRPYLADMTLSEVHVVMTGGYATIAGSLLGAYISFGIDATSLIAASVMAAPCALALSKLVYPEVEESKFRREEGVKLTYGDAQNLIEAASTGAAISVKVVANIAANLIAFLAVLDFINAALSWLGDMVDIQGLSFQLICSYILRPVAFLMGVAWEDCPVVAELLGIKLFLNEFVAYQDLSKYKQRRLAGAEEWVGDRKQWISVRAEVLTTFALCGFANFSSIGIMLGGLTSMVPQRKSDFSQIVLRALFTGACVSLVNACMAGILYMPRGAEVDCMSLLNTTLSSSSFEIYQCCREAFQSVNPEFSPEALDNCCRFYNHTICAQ

[3] = target: T3, Sodium/nucleoside cotransporter 2 (Homo sapiens, UniProt O43868); assay: Binding affinity to recombinant human CNT2 expressed in Saccharomyces cerevisiae assessed as inhibition of [3H]-uridine transport after 15 mins by scintillation counting analysis; assay type: ADME; conditions: for Ki: read-out: Ki(app)
T3 sequence (O43868 whole entry): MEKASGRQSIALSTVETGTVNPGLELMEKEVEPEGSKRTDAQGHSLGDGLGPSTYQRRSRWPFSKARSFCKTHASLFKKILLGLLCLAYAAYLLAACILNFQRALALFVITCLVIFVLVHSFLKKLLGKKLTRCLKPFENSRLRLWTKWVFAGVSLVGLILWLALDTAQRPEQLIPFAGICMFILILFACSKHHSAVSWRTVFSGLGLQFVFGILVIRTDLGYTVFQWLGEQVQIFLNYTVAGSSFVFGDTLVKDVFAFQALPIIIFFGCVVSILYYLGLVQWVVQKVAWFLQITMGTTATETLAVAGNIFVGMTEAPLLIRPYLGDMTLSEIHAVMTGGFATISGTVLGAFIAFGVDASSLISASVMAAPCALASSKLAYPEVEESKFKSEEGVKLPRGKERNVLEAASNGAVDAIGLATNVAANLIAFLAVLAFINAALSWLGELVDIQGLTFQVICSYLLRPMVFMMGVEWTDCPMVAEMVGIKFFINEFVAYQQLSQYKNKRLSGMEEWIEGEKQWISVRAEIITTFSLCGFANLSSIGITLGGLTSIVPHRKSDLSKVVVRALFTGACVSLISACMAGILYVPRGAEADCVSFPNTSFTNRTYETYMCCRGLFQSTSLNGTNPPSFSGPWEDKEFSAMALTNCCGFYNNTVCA

[4] = target: T4, Solute carrier family 28 member 3 (Homo sapiens, UniProt Q9HAS3); assay: Binding affinity to recombinant human CNT3 expressed in Saccharomyces cerevisiae assessed as inhibition of [3H]-uridine transport after 5 mins by scintillation counting analysis; assay type: ADME; conditions: for Ki: read-out: Ki(app)
T4 sequence (Q9HAS3 whole entry): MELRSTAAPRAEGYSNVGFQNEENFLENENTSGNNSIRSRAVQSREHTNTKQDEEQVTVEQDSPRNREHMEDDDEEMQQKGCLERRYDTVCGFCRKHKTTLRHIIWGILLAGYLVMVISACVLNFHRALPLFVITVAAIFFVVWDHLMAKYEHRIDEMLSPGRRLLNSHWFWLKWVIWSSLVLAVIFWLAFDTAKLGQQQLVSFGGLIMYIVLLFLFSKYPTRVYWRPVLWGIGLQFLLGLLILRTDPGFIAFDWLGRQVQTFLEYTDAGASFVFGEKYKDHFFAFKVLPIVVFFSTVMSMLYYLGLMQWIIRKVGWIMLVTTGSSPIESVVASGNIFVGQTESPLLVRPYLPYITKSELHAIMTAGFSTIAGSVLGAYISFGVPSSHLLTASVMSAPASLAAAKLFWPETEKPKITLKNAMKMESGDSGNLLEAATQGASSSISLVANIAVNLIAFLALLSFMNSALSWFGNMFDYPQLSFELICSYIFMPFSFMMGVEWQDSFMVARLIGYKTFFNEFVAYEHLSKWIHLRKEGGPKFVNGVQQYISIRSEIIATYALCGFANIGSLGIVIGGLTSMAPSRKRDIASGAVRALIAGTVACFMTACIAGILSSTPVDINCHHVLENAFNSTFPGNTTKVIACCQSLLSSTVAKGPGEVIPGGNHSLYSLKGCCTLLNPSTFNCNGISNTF

[5] = Tmax in CD-1 mouse brain at 0.1 mg/kg, iv administered as bolus dose in presence of ENT1 inhibitor NBMPR-P; assay type: ADME, organism-based; set-up: dose 0.1 mg/kg, route intravenous
[6] = Tmax in CD-1 mouse brain at 0.1 mg/kg, iv administered as bolus dose in absence of ENT1 inhibitor NBMPR-P; assay type: ADME, organism-based; set-up: dose 0.1 mg/kg, route intravenous
[7] = target: T5, Equilibrative nucleoside transporter 1 (Homo sapiens, UniProt Q99808); assay: Binding affinity to recombinant human ENT1 expressed in Saccharomyces cerevisiae assessed as inhibition of [3H]-uridine transport after 15 mins by scintillation counting analysis; assay type: ADME
T5 sequence (Q99808 whole entry): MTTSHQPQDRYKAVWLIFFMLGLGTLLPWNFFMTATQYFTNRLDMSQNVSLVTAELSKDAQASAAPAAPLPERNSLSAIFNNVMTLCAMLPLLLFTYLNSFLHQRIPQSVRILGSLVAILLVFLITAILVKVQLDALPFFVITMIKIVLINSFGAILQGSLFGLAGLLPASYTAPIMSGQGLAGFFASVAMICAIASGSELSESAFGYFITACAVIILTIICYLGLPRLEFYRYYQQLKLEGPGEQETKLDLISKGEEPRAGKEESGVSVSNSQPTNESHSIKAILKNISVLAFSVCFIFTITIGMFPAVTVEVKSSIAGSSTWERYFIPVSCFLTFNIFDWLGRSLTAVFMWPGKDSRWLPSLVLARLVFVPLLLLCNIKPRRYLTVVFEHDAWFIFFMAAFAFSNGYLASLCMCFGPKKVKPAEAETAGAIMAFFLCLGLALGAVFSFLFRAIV

[8] = target: T5, Equilibrative nucleoside transporter 1; assay: Drug transport in human CCRF-CEM cells assessed as ENT1-mediated uptake measured per 10^6 cells after 5 secs by Michaelis-Menten equation analysis; assay type: ADME, cell-based; conditions: 5 s
Xenopus laevis = species: Xenopus laevis; assay: Drug uptake in water-injected Xenopus laevis oocytes up to 1 mM measured per 2 mins; assay type: ADME, organism-based; conditions: in vivo
[9] = target: T5, Equilibrative nucleoside transporter 1; assay: Drug transport in Xenopus laevis oocytes assessed as recombinant human ENT1-mediated uptake up to 1 mM measured per 2 mins by Michaelis-Menten equation analysis; assay type: ADME, cell-based
[10] = Cmax in CD-1 mouse brain at 0.1 mg/kg, iv administered as bolus dose in absence of ENT1 inhibitor NBMPR-P; assay type: ADME, organism-based; set-up: dose 0.1 mg/kg, route intravenous
[11] = Cmax in CD-1 mouse brain at 0.1 mg/kg, iv administered as bolus dose in presence of ENT1 inhibitor NBMPR-P; assay type: ADME, organism-based; set-up: dose 0.1 mg/kg, route intravenous
Brain [12] = assay: AUC (0 to 4 hrs) in CD-1 mouse brain at 0.1 mg/kg, iv administered as bolus dose in absence of ENT1 inhibitor NBMPR-P; assay type: ADME, organism-based; set-up: time < 4 hr, dose 0.1 mg/kg, route intravenous; conditions: in vivo
Brain [13] = assay: AUC (0 to 4 hrs) in CD-1 mouse brain at 0.1 mg/kg, iv administered as bolus dose in presence of ENT1 inhibitor NBMPR-P; assay type: ADME, organism-based; set-up: time < 4 hr, dose 0.1 mg/kg, route intravenous; conditions: in vivo
[14] = Apparent volume of distribution at steady state in CD-1 mouse at 0.1 mg/kg, iv administered as bolus dose in absence of ENT1 inhibitor NBMPR-P; assay type: ADME, organism-based; set-up: dose 0.1 mg/kg, route intravenous; conditions: in vivo, read-out: Vdss(app)
[15] = Apparent volume of distribution at steady state in CD-1 mouse at 0.1 mg/kg, iv administered as bolus dose in presence of ENT1 inhibitor NBMPR-P; assay type: ADME, organism-based; set-up: dose 0.1 mg/kg, route intravenous; conditions: in vivo, read-out: Vdss(app)
[16] = Elimination half life in CD-1 mouse at 0.1 mg/kg, iv administered as bolus dose in absence of ENT1 inhibitor NBMPR-P; assay type: ADME, organism-based; set-up: dose 0.1 mg/kg, route intravenous; conditions: in vivo, read-out: beta t1/2 (converted)
[17] = Elimination half life in CD-1 mouse at 0.1 mg/kg, iv administered as bolus dose in presence of ENT1 inhibitor NBMPR-P; assay type: ADME, organism-based; set-up: dose 0.1 mg/kg, route intravenous; conditions: in vivo, read-out: beta t1/2 (converted)
[18] = AUC (0 to infinity) in CD-1 mouse at 0.1 mg/kg, iv administered as bolus dose in absence of ENT1 inhibitor NBMPR-P; assay type: ADME, organism-based; set-up: time infinity, dose 0.1 mg/kg, route intravenous; conditions: plasma
[19] = AUC (0 to infinity) in CD-1 mouse at 0.1 mg/kg, iv administered as bolus dose in presence of ENT1 inhibitor NBMPR-P; assay type: ADME, organism-based; set-up: time infinity, dose 0.1 mg/kg, route intravenous; conditions: plasma
[20] = target: T6, ENT1 (equilibrative nucleoside transporter 1) (Homo sapiens, UniProt Q99808); assay: Drug transport in Xenopus laevis oocytes assessed as recombinant human ENT1-mediated uptake up to 1 mM by Michaelis-Menten equation analysis; assay type: ADME, cell-based; conditions: Xenopus laevis oocytes expressing recombinant human ENT1, read-out: Km(app)
T6 sequence (Q99808 whole entry): T5 sequence (Q99808 whole entry)

[21] = target: T6, ENT1 (equilibrative nucleoside transporter 1); assay: Drug transport in human CCRF-CEM cells assessed as ENT1-mediated uptake after 5 secs by Michaelis-Menten equation analysis; assay type: ADME, cell-based

## Nc1ncnc2c1ncn2[C@@H]1O[C@H](CO)[C@@H](O)[C@H]1O [ADENOSINE]
[1]
  IC50: 106 µM
  Ki: 106 µM
[2]
  IC50: 5.5 µM
  Ki: 1.8 µM
[3]
  IC50: 5.5 µM
  Ki: 5.3 µM
[4]
  IC50: 3.3 µM
  Ki: 2.1 µM

## OC[C@H]1O[C@@H](n2cnc3c(N[C@@H]4CCOC4)ncnc32)[C@H](O)[C@@H]1O [TECADENOSON]
[5]
  Tmax: 11.4 min
[6]
  Tmax: 6.6 min
[7]
  IC50: 12 µM
[7]; read-out: Ki(app)
  Ki: 11 µM
[1]
  IC50: 190 µM
  Ki: 189 µM
[2]
  IC50: 41 µM
  Ki: 37 µM
[3]
  IC50: 239 µM
  Ki: 231 µM
[4]
  IC50: 200 µM
  Ki: 126 µM
[8]
  Vmax: 3.4 pmol
Xenopus laevis
  Drug uptake: 5 pmol
[9]
  Vmax: 46.7 pmol
[10]
  Cmax: 23 ng/g
[11]
  Cmax: 4 ng/g
Brain [12]
  AUC: 22 ng·h/g
Brain [13]
  AUC: 7 ng·h/g
[14]
  Vd: 2.8 L/kg
[15]
  Vd: 2.2 L/kg
[16]
  half-life: 42 min
[17]
  half-life: 66 min
[18]
  AUC(0-inf): 16.4 ng·h/mL
[19]
  AUC(0-inf): 50.5 ng·h/mL
[20]
  Km: 196 µM
[21]
  Km at 5 s: 24 µM
